In US20110046067A1, “COMPOSITIONS COMPRISING HUMAN EGFR-siRNA AND METHODS OF USE” (Intradigm Corporation, priority 2007, published 2011):
Entries after “also recorded” stand apart in the source; their conditions may differ.

System: hEGFR
Test: hEGFR dose titration in HT-29 cells (electroporation, hEGFR ELISA)
Assay type: cell-based, human
Conditions: 0.01-10 ug siRNA per 2×10^6 cells/200 μl, 48 hours post transfection
Description: The selected hEGFR-siRNA, hEGFR-25-1 and hEGFR-25-2, were tested for their capability of inhibiting hEGFR expression in a dose-dependent manner. The HT-29 cells were transfected with the EGFR-siRNAs in a range of 0.01-10 ug siRNA per 2×10^6 cells/200 μl using an electroporation mediated transfection method. The concentration of EGFR protein in the transfected HT-29 cells was measured at 48 hours post transfection using a hEGFR ELISA kit (R&D Systems, Inc.). The concentration of hEGFR protein was normalized against total cellular protein and the percentage of hEGFR inhibition was normalized against cells treated with a mock process without siRNA.
Two siRNA candidates, hEGFR-25-1 and hEGFR-25-2, were further tested for activity in a dose titration experiment.

Substance | dose-dependent inhibition of hEGFR production
5′-r(CACAGUGGAGCGAAUUCCUUUGGAA)-3′ (chain 2 UUCCAAAGGAAUUCGCUCCACUGUG; siRNA; RNA, backbone not given here) [hEGFR-25-1] | inhibited hEGFR expression in a dose-dependent manner; also recorded: dose-dependent inhibition
5′-r(CGCAAAGUGUGUAACGGAAUAGGUA)-3′ (chain 2 UACCUAUUCCGUUACACACUUUGCG; siRNA; RNA, backbone not given here) [hEGFR-25-2] | inhibited hEGFR expression in a dose-dependent manner; also recorded: dose-dependent inhibition
